Drawing on patent EP4332093A1, “SALT CONTAINING PIPERAZINE POLYCYCLIC DERIVATIVE, CRYSTAL FORM THEREOF, PREPARATION METHOD THEREFOR, AND USE THEREOF” (Shanghai Hansoh Biomedical Co., Ltd., priority 2021, dated 2022), this text covers IC50 and CAR value for six compounds.

For one experiment, the target named is 5-HT2A receptor (Homo sapiens, UniProt P28223). As to the kind of experiment: Radioligand binding assay, 5-HT2A receptor ([3H]-Ketanserin). Further details: purchased PerkinElmer. Particulars: Human 5-HT2A Receptor membrane, [3H]-Ketanserin 2 nM; read-out: 5HT-2A Binding IC50. The method, then: Determination of the binding ability of the compounds of the
present invention to 5-HT2A receptor
The objective of this test example is to determine the affinity of the compounds for 5-HT2A receptor.
Experimental buffer: 50 mM Tris-HCl pH 7.4, 4 mM CaCl2; washing liquor: 50 mM Tris-HCl pH 7.4, stored at 4°C; 0.5% PEI solution: 0.5 g PEI dissolved in 100 mL ddH2O, 4°C storage of spare.
5 µL of the test compounds (0.005 nM to 100 nM, 10 concentrations in total) and 100 µL of buffer were added to a 96-well assay plate. 1.5 µL of cell membrane and 300 µL of buffer were added to each well, and the plate was shaken at 600 rpm for 5 minutes. 100 µL of a mixed solution of buffer and [^3H]-Ketanserin (final concentration of 2 nM) was added to the reaction system per well, and the plate was shaken at 600 rpm for 5 minutes and incubated at 27°C for 30 min. The […]-96 GF/B filter plate pre-incubated with 0.5% PEI for 1 h was washed twice with the buffer (1 mL/well). The cell membrane suspension was added to the […]-96 GF/B filter plate, washed 4 times, and incubated at 55°C for 10 min. 40 µL of ULTIMA GOLD was added to each well, and liquid scintillation counting was carried out.
(§1) The CPM (Counts per minute) values were determined by TopCount. […] The 10 concentrations of the compound were from 100 nM to 0.005 nM after 3-fold dilution of the reaction system. The percent inhibition rate and ten-point concentration data were fitted to the parametric nonlinear logistic equation by using GraphPad prism to calculate the IC50 values of the compound.

The next experiment deals with T1, dopamine D3 receptor (Homo sapiens, UniProt P35462).
T1 construct: purchased PerkinElmer ES-173-M400UA
The experiment can be described thus: Radioligand binding assay, dopamine D3 receptor ([3H]-methylspiperone). The following applies: Human Dopamine D3 Receptor membrane, [3H]-methylspiperone 0.5 nM. As for the experimental part: Determination of the binding ability of the compounds of the present invention to dopamine D3 receptor
The objective of this test example is to determine the affinity of the compounds for dopamine D3 receptor.
Experimental buffer: 50 mM Tris-HCl pH 7.4, 10 mm MgCl2; washing liquor: 50 mM Tris-HCl pH 7.4, stored at 4°C; 0.5% PEI solution: 0.5 g PEI dissolved in 100 mL ddH2O, 4°C storage of spare.
5 µL of the test compounds (0.005 nM to 100 nM, 10 concentrations in total) and 100 µL of buffer were added to a 96-well assay plate. 1 µL of cell membrane and 300 µL of buffer were added to each well, and the plate was shaken at 600 rpm for 5 minutes. 100 µL of a mixed solution of buffer and [^3H]-methylspiperone (final concentration of 0.5 nM) was added to the reaction system per well, and the plate was shaken at 600 rpm for 5 minutes and incubated at 27°C for 30 min. The UNIFII,TER-96 GF/B filter plate pre-incubated with 0.5% PEI for 1 h was washed twice with the buffer (1 mL/well). The cell membrane suspension was added to the […]-96 GF/B filter plate, washed 4 times, and incubated at 55°C for 10 min. 40 µL of ULTIMA GOLD was added to each well, and liquid scintillation counting was carried out.
as §1

The subject of another experiment is rats. As to the kind of experiment: Pharmacodynamic model of active escape experiment in rats. The format is in vivo. Particulars: F344 rats, oral, Dose 1 mg/kg, one hour before the test; Vehicle 91-98%. As for the experimental part:
To evaluate the anti-schizophrenic effect of the compounds using the pharmacodynamic model of the active escape experiment in rats.
A certain mass (such as 1.0 g) of CMC-Na was weighed into a glass bottle. A certain volume (such as 200 mL) of purified water was added. The resulting mixture was stirred to disperse evenly. 1% (v/v) Tween 80 was added according to the solution volume, and the resulting mixture was stirred overnight to obtain a homogeneous clear solution, which was stored at 2 to 8°C for later use.
A prescription amount of the compound was weighed, followed by the addition of a prescription volume of 0.5% CMC-Na+1% Tween 80 solution. […]
The actual sample amount needs to be calculated during the formulation and administration of the compound solution. […]
The current intensity was 0.6 mA and the duration was 10 seconds. […] This would be recorded as escape failures, and the single training ended; • 5.1.5 Each animal was trained 30 times a day for a total of 6 days, and returned to the cage after the training. • 5.2 Baseline test and grouping […]
The following data was collected by the software for data analysis: • Number of avoids of the animal; • Number of escape failures of the animal; • Escape latency of the animal; • All measurement data were expressed as mean ± standard error (Mean ± SEM), and analyzed by Graphpad 6 statistical software. […]

T1 sequence (P35462 whole entry): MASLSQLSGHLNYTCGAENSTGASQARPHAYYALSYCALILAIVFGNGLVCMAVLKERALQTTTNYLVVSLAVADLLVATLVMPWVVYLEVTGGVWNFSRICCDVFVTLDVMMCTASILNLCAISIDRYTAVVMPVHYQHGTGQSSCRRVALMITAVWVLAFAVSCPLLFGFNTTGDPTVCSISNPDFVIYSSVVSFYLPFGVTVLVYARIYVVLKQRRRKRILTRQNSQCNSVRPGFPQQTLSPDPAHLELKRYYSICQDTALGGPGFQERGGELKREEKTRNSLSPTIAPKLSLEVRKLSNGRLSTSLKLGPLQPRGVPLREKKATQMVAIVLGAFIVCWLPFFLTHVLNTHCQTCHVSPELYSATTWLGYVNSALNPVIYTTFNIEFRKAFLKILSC
5-HT2A receptor, sequence (P28223 whole entry): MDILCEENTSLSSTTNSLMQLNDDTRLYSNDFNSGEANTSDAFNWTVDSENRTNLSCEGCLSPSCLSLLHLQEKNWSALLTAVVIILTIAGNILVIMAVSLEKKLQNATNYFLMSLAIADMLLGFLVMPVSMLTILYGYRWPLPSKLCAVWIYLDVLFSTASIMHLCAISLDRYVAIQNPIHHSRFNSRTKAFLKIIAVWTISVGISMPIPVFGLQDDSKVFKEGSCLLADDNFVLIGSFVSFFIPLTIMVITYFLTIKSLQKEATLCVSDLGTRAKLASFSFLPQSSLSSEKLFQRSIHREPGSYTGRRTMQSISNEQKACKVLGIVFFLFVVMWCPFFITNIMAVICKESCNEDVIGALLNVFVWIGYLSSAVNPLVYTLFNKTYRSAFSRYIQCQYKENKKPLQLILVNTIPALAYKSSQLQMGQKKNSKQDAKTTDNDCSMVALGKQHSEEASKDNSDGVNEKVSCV

Regarding `O=C(N[C@H]1C[C@H](CCN2CCN(c3cccc(Cl)c3Cl)CC2)C1)C1(O)CC1` [Example 6A, N-(Trans-3-(2-(4-(2,3-dichlorophenyl)piperazin-1-yl)ethyl)cyclobutyl)-1-hydroxycy clopropane-1-carboxamide], the half-maximal inhibitory concentration (IC50) on 5-HT2A receptor is 5.77 nM; at dopamine D3 receptor, 0.75 nM.

With `O=C(N[C@H]1C[C@H](CCN2CCN(c3cccc(Cl)c3Cl)CC2)C1)c1nccs1` [Example 7A, N-(Trans-3-(2-(4-(2,3-dichlorophenyl)piperazin-1-yl)ethyl)cyclobutyl)thiazole-2-car boxamide], the IC50 is 0.79 nM on 5-HT2A receptor and 0.44 nM on dopamine D3 receptor.

For the compound `O=C(NC1CC(CCN2CCN(c3cccc(Cl)c3Cl)CC2)C1)c1ncco1` (stereo not drawn) [Example 12, N-(3-(2-(4-(2,3-Dichlorophenyl)piperazin-1-yl)ethyl)cyclobutyl)oxazole-2-carboxamide], in the experiment with rats, the CAR value is listed as 30%.

In the experiment on rats, `O=C(N[C@H]1C[C@H](CCN2CCN(c3cccc(Cl)c3Cl)CC2)C1)c1ncco1` [Example 12A, N-(Trans-3-(2-(4-(2,3-dichlorophenyl)piperazin-1-yl)ethyl)cyclobutyl)oxazole-2-car boxamide] came in with a CAR value of 18.5%. Further, the IC50 on 5-HT2A receptor was 4.19 nM; on dopamine D3 receptor, 0.37 nM.

`O=C(N[C@H]1C[C@@H](CCN2CCN(c3cccc(Cl)c3Cl)CC2)C1)c1ncco1` [Example 12B, N-(Cis-3-(2-(4-(2,3-dichlorophenyl)piperazin-1-yl)ethyl)cyclobutyl)oxazole-2-carbo xamide]: the results for the IC50 at 5-HT2A receptor and at dopamine D3 receptor were 8.73 nM and 2.54 nM, respectively.

Turning to `O=C(N[C@H]1C[C@H](CCN2CCN(c3cccc(Cl)c3Cl)CC2)C1)c1cccc2ncccc12` [Example 19A, N-(Trans-3-(2-(4-(2,3-dichlorophenyl)piperazin-1-yl)ethyl)cyclobutyl)quinoline-5-c arboxamide], the half-maximal inhibitory concentration (IC50) at 5-HT2A receptor worked out at 1.89 nM; at dopamine D3 receptor, 0.4 nM.
